Target: T1, CYP126A1 (Mycobacterium tuberculosis, UniProt P9WPN9)
T1 construct: gene cyp126
Assay: UV-visible absorbance titration (heme Soret shift)
Type: binding

T1 sequence (P9WPN9 whole entry): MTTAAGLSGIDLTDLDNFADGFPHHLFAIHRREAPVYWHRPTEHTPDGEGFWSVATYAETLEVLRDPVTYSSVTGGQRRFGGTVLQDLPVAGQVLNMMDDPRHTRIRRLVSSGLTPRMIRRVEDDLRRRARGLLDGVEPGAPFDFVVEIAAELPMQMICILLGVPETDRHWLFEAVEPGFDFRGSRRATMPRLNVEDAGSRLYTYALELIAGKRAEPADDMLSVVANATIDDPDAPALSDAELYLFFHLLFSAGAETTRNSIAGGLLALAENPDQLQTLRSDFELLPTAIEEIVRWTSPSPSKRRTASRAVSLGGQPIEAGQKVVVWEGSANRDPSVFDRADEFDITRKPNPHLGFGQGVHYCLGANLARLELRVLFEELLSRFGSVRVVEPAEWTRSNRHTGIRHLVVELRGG

SMILES | Kd [µM]
Clc1ccc(COC(Cn2ccnc2)c2ccc(Cl)cc2Cl)cc1 (centres unmarked) [Econazole] | 4 ± 0.6
Cn1c(-c2ccc(-c3nc4ccccc4[nH]3)cc2)nc2cc(N)ccc21 [compound 8, Compound 8] | 11 ± 0.6
c1c[nH]cn1 [Imidazole] | 2590 ± 60
Clc1ccc(COC(Cn2ccnc2)c2ccc(Cl)cc2Cl)c(Cl)c1 (centres unmarked) [Miconazole] | 1.3 ± 0.2
CC(=O)N1CCN(c2ccc(OC[C@H]3CO[C@](Cn4ccnc4)(c4ccc(Cl)cc4Cl)O3)cc2)CC1 (racemic) [Ketoconazole] | 0.34 ± 0.07
O=C(O)C1CSC(c2cc3ccccc3nc2Cl)N1 (centres unmarked) [compound 9, Compound 9] | 16.4 ± 0.7
Clc1ccccc1C(c1ccccc1)(c1ccccc1)n1ccnc1 [Clotrimazole] | 3.9 ± 0.4
O=C(NCCCn1ccnc1)NC12CC3CC(CC(C3)C1)C2 [compound 7, Compound 7] | 4.13 ± 0.61

Source: PMC5270475, “Structural Characterization and Ligand/Inhibitor Identification Provide Functional Insights into the Mycobacterium tuberculosis Cytochrome P450 CYP126A1” (The Journal of Biological Chemistry, 2016)
